Test system: Meth-A fibrosarcoma cells
Test: Inhibition of growth of Meth-A fibrosarcoma in mice (compound mixed with tumor cells)
Type: in vivo
Details: 100 μg mixed with 5×10^4 Meth-A fibrosarcoma cells, intracutaneous, female Balb/C mice
Description: For example, 100 μg of the compounds obtained in accordance with the present invention suspended in a phosphate-buffered saline and mixed with 5×10^4 Meth-A fibrosarcoma cells, followed by intracutaneous administration to female Balb/C mice. The effects to inhibit the growth of Meth-A were examined at 1 week intervals until the 4th week after the administration.

Measured: The number of tumor-free mice/the number of mice tested

2-(2-acetamido-2,6-dideoxy-6-mycoloylamino-D-glucopyranos-3-O-yl)-D-propionyl-L-valyl-D-isoglutamine [Example 9]
10/10: week 1 | week 2 | week 3 | week 4

2-(2-acetamido-2,6-dideoxy-6-mycoloylamino-D-glucopyranos-3-O-yl)-D-propionyl-L-alanyl-D-isoglutamine [Example 7]
10/10: week 2 | week 3 | week 4
